According to patent US9453226B2, “Protection of cells from Alu-RNA-induced degeneration and inhibitors for protecting cells” (UNIVERSITY OF KENTUCKY RESEARCH FOUNDATION, priority 2011, dated 2016):

Assays:
IRAK1/4 phosphorylation = IRAK1/4 phosphorylation in human RPE cells (Western blot); assay type: cell-based; details: human RPE cells; normalized to Vinculin
Procedure: Protein abundance was assessed by Western blot analysis using antibodies against Caspase-1 (1:500; Invitrogen), pIRAK1 (1:500; Thermo Scientific), pIRAK4 (1:500, Abbomax), PYCARD (1:200, Santa Cruz Biotechnology), NLRP3 (1:500, Enzo Life Sciences) and Vinculin (1:1,000; Sigma-Aldrich). Caspase-1 activity was visualized using Caspalux1 E1D2 (Oncolmmunin) according to manufacturer's instructions.
Tissues or cells were homogenized in lysis buffer (10 mM Tris base, pH 7.4, 150 mM NaCl, 1 mM EDTA, 1 mM EGTA, 1% Triton X-100, 0.5% NP-40, protease and phosphatase inhibitor cocktail (Roche)). Protein concentrations were determined using a Bradford assay kit (Bio-Rad) with bovine serum albumin as a standard. Proteins (40-100 μg) were run on NuPAGE Bis-Tris gels (Invitrogen) and transferred to Immun-Blot PVDF membranes (Bio-Rad). Cells were scraped in hot Laemmli buffer (62.5 mM Tris base, pH 6.8, 2% SDS, 5% 2-Mercaptoethanol, 10% Glycerol, 0.01% Bromophenol Blue). Samples were boiled and run on 4-20% NuPAGE Tris-Glycine gels (Invitrogen). The transferred membranes were blocked for 1 h at RT and incubated with antibodies against human Caspase-1 (1:500; Invitrogen), mouse Caspase 1 (1:500; MBL), NLRP3 (1:1000; Enzo Life Sciences), PYCARD (1:1000, RayBiotech), phospho-IRAK1 (S376) (1:500, Thermo Scientific), phospho-IRAK4 (T345) (1:500, AbboMax), DICER1 (1:2,000; Bethyl), MyD88 (1:1,000; Cell Signaling), and mouse IL-18 (1:200; MBL) at 4° C. overnight. Protein loading was assessed by immunoblotting using an anti-Vinculin antibody (1:1,000; Sigma-Aldrich). The secondary antibodies were used (1:5,000) for 1 h at RT. The signal was visualized by enhanced chemiluminescence (ECL plus) and captured by VisionWorksLS Image Acquisition and Analysis software (Version 6.7.2, UVP, LLC).

RPE = assay: pAlu-induced RPE degeneration in wild-type mice, inhibitors given intravitreously; assay type: in vivo; details: WT mice, subretinal pAlu, inhibitor intravitreous, fundus photographs and ZO-1 flat mounts
Procedure: Subretinal injection and imaging. Subretinal injections (1 μL) were performed using a Pico-Injector (PLI-100, Harvard Apparatus). Plasmids were transfected in vivo using 10% Neuroporter (Genlantis). Fundus imaging was performed on a TRC-50 IX camera (Topcon) linked to a digital imaging system (Sony). RPE flat mounts were immunolabeled using antibodies against zonula occludens-1 (Invitrogen).
Retinal photographs of dilated mouse eyes were taken with a TRC-50 IX camera (Topcon) linked to a digital imaging system (Sony).
Human eyes fixed in 2-4% paraformaldehyde were prepared as eyecups, cryoprotected in 30% sucrose, embedded in optimal cutting temperature compound (Tissue-Tek OCT; Sakura Finetek), and cryosectioned into 10 μm sections. Depigmentation was achieved using 0.25% potassium permanganate and 0.1% oxalic acid. Immunohistochemical staining was performed with the rabbit antibody against NLRP3 (1:100, Sigma Aldrich) or rabbit antibody against Caspase-1 (prediluted, AbCam). Isotype IgG was substituted for the primary antibody to assess the specificity of the staining. Bound antibody was detected with biotin-conjugated secondary antibodies, followed by incubation with ABC reagent and visualized by Vector Blue (Vector Laboratories). Levamisole (Vector Laboratories) was used to block endogenous alkaline phosphatase activity. Slides were washed in PBS, counterstained with neutral red (Fisher Scientific), rinsed with deionized water, air dried, and then mounted in Vectamount (Vector Laboratories). Fluorescent labeling of human tissue was performed with the rabbit antibody against PYCARD (1:50, Clone N-15, Santa Cruz Biotechnology) Immunolabeling was visualized by fluorescently conjugated anti-rabbit secondary antibody (Invitrogen). Tissue autofluorescence was quenched by incubating the sections in 0.3% Sudan black (Fisher Scientific). Sections were mounted in Vectashield with DAPI (Vector Laboratories). Mouse RPE/choroid flat mounts were fixed with 4% paraformaldehyde or 100% methanol, stained with rabbit antibodies against human zonula occludens-1 (1:100, Invitrogen) and visualized with Alexa594 (Invitrogen). All images were obtained using the Leica SP-5 or Zeiss Axio Observer Z1 microscopes.
Subretinal injections (1 μL) in mice were performed using a Pico-Injector (PLI-100, Harvard Apparatus). In vivo transfection of plasmids coding for two different Alu sequences (pAlu) or empty control vector (pNull) (Bennett et al., 2008; Kaneko et al., 2011; Shaikh et al., 1997) was achieved using 10% Neuroporter (Genlantis). AAV1-BEST1-Cre (Alexander and Hauswirth, 2008) or AAV1-BEST1-GFP were injected at 1.0×10^11 pfu/mL and in vitro transcribed Alu RNA was injected at 0.3 mg/mL.
siRNAs formulated in siRNA buffer (20 mM KCL, 0.2 mM MgCl2 in HEPES buffer at pH 7.5; Dharmacon) or phosphate buffered saline (PBS; Sigma-Aldrich); the TLR4 antagonist Ultra Pure Rhodobacter sphaeroides LPS (LPS-RS, InvivoGen), a peptide inhibitor of MyD88 homodimerization IMG-2005 (IMGENEX), control inhibitor (IMGENEX), recombinant IL-18 (Medical & Biological Laboratories), neutralizing rat antibodies against mouse IL-1β (IMGENEX), neutralizing rat antibodies against mouse IL-18 (Medical & Biological Laboratories), isotype control IgGs (R&D Systems or eBioscience as appropriate), Caspase-1 inhibitor Z-WEHD-FMK (R&D Systems), Caspase control inhibitor Z-FA-FMK (R&D Systems), DPI (Enzo Life Sciences), Mito-TEMPO (Enzo Life Sciences), MitoQ and dTPP (both adsorbed to cyclodextrin and provided by M.P. Murphy, MRC Mitochondrial Biology Unit), and gp91ds-tat and scrambled gp91 ds-tat (both Anaspec), were dissolved in phosphate buffered saline (PBS; Sigma-Aldrich) or dimethyl sulfoxide (DMSO; Sigma-Aldrich), and injected into the vitreous humor in a total volume of 1 μL with a 33-gauge Exmire microsyringe (Ito Corporation). […] As a control, Luc siRNA-chol (17+2 nt) was used with identical dosages. […]

Row | Substance | Alu RNA-induced IRAK1/4 phosphorylation (IRAK1/4 phosphorylation) | pAlu-induced RPE degeneration (RPE) | pAlu-induced RPE degeneration (RPE; listed as Caspase-1 peptide inhibitor)
1 | DRQIKIWFQNRRMKWKKRDVLPGT [MyD88 inhibitory peptide] | reduces | inhibited | –
2 | Z-WEHD-FMK | reduced | blocked | protects
